According to the supplement of paper PMC10331698:
± gives the standard deviation of the averaged measurements.

Tests used:
Experiment in all cases: level (log10 ratio to DMSO vehicle control); higher = higher biomarker level / cell amount than vehicle control
Perfluoroheptanoic acid = compound: O=C(O)C(F)(F)C(F)(F)C(F)(F)C(F)(F)C(F)(F)C(F)(F)F [Perfluoroheptanoic acid]; settings: in DMSO
Description: (§1)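 BioMAP Diversity Plus panel of 12 human primary cell co-culture systems (3C, 4H, LPS, SAg, BT, BF4T, BE3C, CASM3C, HDF3CGF, KF3CT, MyoF, Mphg). Compounds were added 1 h before stimulation and left for 24 h (MyoF 48 h; BT 72 h for soluble read-outs or 6 d for IgG). Biomarkers were read by ELISA, cytotoxicity by SRB, PBMC viability and proliferation by Alamar Blue. Each well value was divided by the mean of 8 DMSO control wells on the same plate and log10 transformed; duplicate blinded samples were tested at 4 concentrations.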

[1] = compound: O=C(O)C(F)(F)C(F)(F)C(F)(F)OC(F)(C(F)(F)F)C(F)(F)F [Perfluoro-4-isopropoxybutanoic acid]; settings: in DMSO
Description: as §1

Perfluoropropanoic acid = compound: O=C(O)C(F)(F)C(F)(F)F [Perfluoropropanoic acid]; settings: in DMSO
Description: as §1

[2] = compound: FC(F)C(F)(F)COCC1CO1 [((2,2,3,3-Tetrafluoropropoxy)methyl)oxirane]; settings: in DMSO
Description: as §1

Pentafluoropropionamide = compound: NC(=O)C(F)(F)C(F)(F)F [Pentafluoropropionamide]; settings: in DMSO
Description: as §1

[3] = compound: OCCCC(F)(F)C(F)(F)C(F)(F)C(F)(F)C(F)(F)C(F)(F)C(F)(F)F [7:3 Fluorotelomer alcohol]; settings: 6700 nM; in DMSO
Description: as §1

Perfluorobutanoic acid = compound: O=C(O)C(F)(F)C(F)(F)C(F)(F)F [Perfluorobutanoic acid]; settings: in DMSO
Description: as §1

Row | Test System | level (log10) (Perfluoroheptanoic acid; 6700 nM) | level (log10) (Perfluoroheptanoic acid; 20000 nM) | level (log10) (Perfluoroheptanoic acid; 60000 nM) | level (log10) ([1]; 6700 nM) | level (log10) ([1]; 20000 nM) | level (log10) ([1]; 60000 nM) | level (log10) (Perfluoropropanoic acid; 6700 nM) | level (log10) (Perfluoropropanoic acid; 20000 nM) | level (log10) (Perfluoropropanoic acid; 60000 nM) | level (log10) ([2]; 6700 nM) | level (log10) ([2]; 20000 nM) | level (log10) ([2]; 60000 nM) | level (log10) (Pentafluoropropionamide; 6700 nM) | level (log10) (Pentafluoropropionamide; 20000 nM) | level (log10) (Pentafluoropropionamide; 60000 nM) | level (log10) [3] | level (log10) (Perfluorobutanoic acid; 6700 nM) | level (log10) (Perfluorobutanoic acid; 20000 nM) | level (log10) (Perfluorobutanoic acid; 60000 nM)
1 | BF4T:MMP-3 | -0.027 ± 0.023 | -0.011 | 0.046 ± 0.048 | -0.0095 ± 0.013 | -0.0015 ± 0.029 | 0.042 ± 0.1 | -0.018 ± 0.0028 | 0.0015 ± 0.026 | 0.0085 ± 0.028 | 0.0015 ± 0.00071 | -0.0115 ± 0.026 | 0.0205 ± 0.059 | -0.024 ± 0.011 | -0.007 | -0.003 ± 0.033 | -0.013 ± 0.014 | 0.0005 ± 0.035 | 0.0045 ± 0.015 | 0.006 ± 0.033
2 | BF4T:MMP-9 | 0.0145 ± 0.016 | 0.0445 ± 0.022 | 0.103 ± 0.054 | 0.012 ± 0.0057 | 0.0275 ± 0.0064 | 0.058 ± 0.034 | -0.0065 ± 0.036 | -0.0065 ± 0.037 | 0.0035 ± 0.032 | 0.0055 ± 0.005 | -0.01 ± 0.0042 | 0.0065 ± 0.013 | 0.02 ± 0.024 | -0.001 ± 0.021 | 0.027 ± 0.0042 | -0.0235 ± 0.018 | 0.006 ± 0.045 | 0.006 ± 0.059 | 0.022 ± 0.059
3 | BF4T:PAI-I | -0.0045 ± 0.019 | 0.0005 ± 0.025 | 0.0015 ± 0.028 | 0.004 ± 0.0057 | 0.0125 ± 0.0035 | 0.0085 ± 0.018 | -0.004 ± 0.023 | 0.01 ± 0.013 | 0.029 ± 0.044 | -0.0075 ± 0.00071 | -0.011 ± 0.0028 | 0.0105 ± 0.026 | -0.0005 ± 0.0035 | -0.005 ± 0.016 | 0.0015 ± 0.011 | -0.0105 ± 0.005 | -0.003 ± 0.0057 | -0.0115 ± 0.0064 | 0.0025 ± 0.023
4 | BF4T:SRB | -0.0085 ± 0.00071 | -0.0115 ± 0.00071 | -0.0035 ± 0.018 | -0.007 ± 0.0057 | -0.015 | -0.005 ± 0.0099 | -0.002 ± 0.0028 | -0.0025 ± 0.0064 | -0.0055 ± 0.0064 | -0.0075 ± 0.0035 | -0.006 ± 0.0057 | 0.002 ± 0.017 | -0.0035 ± 0.00071 | -0.007 ± 0.0071 | -0.004 ± 0.0042 | -0.008 ± 0.017 | -0.012 ± 0.0071 | -0.0055 ± 0.00071 | 0 ± 0.0042
5 | BF4T:tPA | -0.0125 ± 0.005 | -0.0145 ± 0.015 | 0.004 ± 0.073 | -0.036 ± 0.017 | -0.015 ± 0.016 | 0.0145 ± 0.057 | -0.006 ± 0.024 | 0.025 ± 0.047 | 0.037 ± 0.04 | -0.009 ± 0.018 | -0.001 ± 0.033 | 0.016 ± 0.064 | -0.013 ± 0.0028 | -0.014 ± 0.0042 | 0 ± 0.02 | 0.0105 ± 0.015 | 0.0025 ± 0.005 | 0.0105 ± 0.011 | 0.011 ± 0.013
6 | BF4T:uPA | -0.017 ± 0.0057 | -0.0115 ± 0.012 | 0.009 ± 0.0085 | -0.0085 ± 0.00071 | -0.02 ± 0.0085 | 0.0085 ± 0.03 | -0.0035 ± 0.033 | 0.0105 ± 0.037 | 0.019 ± 0.033 | -0.003 ± 0.0028 | -0.0005 ± 0.013 | 0.0135 ± 0.036 | -0.013 ± 0.0085 | -0.0075 ± 0.0078 | 0.0045 ± 0.018 | -0.011 ± 0.0057 | -0.005 ± 0.0071 | -0.011 ± 0.021 | -0.0025 ± 0.005
7 | BT:B cell Proliferation | 0.018 ± 0.0085 | 0.0145 ± 0.033 | 0.061 ± 0.028 | -0.002 ± 0.0071 | 0.0275 ± 0.0092 | 0.065 ± 0.016 | 0.0125 ± 0.044 | -0.041 ± 0.0085 | -0.002 ± 0.051 | -0.021 ± 0.02 | -0.014 ± 0.0042 | 0.0105 ± 0.0092 | 0.005 ± 0.057 | -0.0215 ± 0.019 | 0.0205 ± 0.019 | -0.011 ± 0.0042 | 0.0085 ± 0.00071 | -0.029 ± 0.014 | 0.002 ± 0.0042
8 | BT:PBMC Cytotoxicity | -0.0175 ± 0.0064 | 0.001 ± 0.0057 | 0.063 ± 0.0014 | 0.02 ± 0.0028 | -0.0165 ± 0.0021 | 0.056 ± 0.016 | -0.0215 ± 0.056 | -0.013 ± 0.027 | -0.005 ± 0.0085 | 0.0145 ± 0.0021 | -0.011 ± 0.0085 | -0.0135 ± 0.005 | 0.0065 ± 0.042 | 0.013 ± 0.034 | -0.02 ± 0.0014 | 0.0245 ± 0.035 | 0.003 ± 0.011 | 0.0255 ± 0.018 | -0.0175 ± 0.00071
9 | BT:Secreted IgG | 0.0185 ± 0.0092 | 0.007 ± 0.027 | -0.0365 ± 0.011 | -0.0115 ± 0.0035 | -0.0005 ± 0.03 | -0.059 ± 0.013 | 0.036 ± 0.028 | 0.03 ± 0.0057 | -0.004 ± 0.057 | 0.0295 ± 0.047 | -0.003 ± 0.071 | -0.0065 ± 0.098 | 0.0065 ± 0.039 | -0.0075 ± 0.046 | 0.0155 ± 0.0064 | -0.0105 ± 0.028 | 0.017 ± 0.0028 | -0.02 ± 0.035 | 0.0055 ± 0.022
10 | BT:sIL-2 | -0.0105 ± 0.14 | 0.0035 ± 0.037 | -0.008 ± 0.075 | 0.0175 ± 0.042 | 0.007 ± 0.016 | 0.0175 ± 0.035 | 0.046 ± 0.016 | -0.0205 ± 0.064 | -0.007 ± 0.1 | 0.084 ± 0.067 | -0.005 ± 0.067 | 0.017 ± 0.13 | 0.0375 ± 0.0092 | 0.002 ± 0.03 | 0.038 ± 0.017 | -0.037 ± 0.15 | -0.011 ± 0.0028 | 0.0285 ± 0.066 | 0.0095 ± 0.042
11 | BT:sIL-6 | 0.02 ± 0.065 | 0.0175 ± 0.044 | -0.0375 ± 0.071 | 0.019 ± 0.044 | 0.019 ± 0.025 | 0.0035 ± 0.047 | 0.021 ± 0.023 | -0.0015 ± 0.0035 | 0.035 ± 0.024 | 0.054 ± 0.051 | 0.0155 ± 0.0064 | -0.0365 ± 0.005 | 0.055 ± 0.027 | 0.017 ± 0.023 | -0.0095 ± 0.052 | -0.0125 ± 0.073 | 0.019 ± 0.064 | 0.055 ± 0.033 | -0.0415 ± 0.088
12 | BT:sIL-17A | 0.047 ± 0.027 | 0.0865 ± 0.16 | -0.0095 ± 0.22 | 0.027 ± 0.05 | 0.052 ± 0.096 | -0.0105 ± 0.21 | 0.0325 ± 0.0064 | -0.051 ± 0.12 | -0.065 ± 0.15 | 0.0715 ± 0.032 | -0.008 ± 0.064 | -0.115 ± 0.03 | 0.0075 ± 0.1 | -0.031 ± 0.051 | 0.0105 ± 0.015 | -0.0585 ± 0.17 | 0.0335 ± 0.018 | -0.0265 ± 0.025 | -0.019 ± 0.021
13 | BT:sIL-17F | -0.0725 ± 0.13 | -0.023 ± 0.21 | -0.013 ± 0.045 | -0.0935 ± 0.005 | -0.092 ± 0.04 | -0.063 ± 0.045 | 0.0335 ± 0.0035 | 0.0335 ± 0.023 | -0.0045 ± 0.052 | -0.0295 ± 0.12 | 0.001 ± 0.13 | 0.0005 ± 0.061 | -0.02 ± 0.085 | -0.03 | 0.0275 ± 0.0064 | 0.0115 ± 0.056 | 0.081 ± 0.035 | 0.065 ± 0.0014 | -0.035 ± 0.024
14 | BT:sTNF-alpha | -0.0045 ± 0.11 | -0.0405 ± 0.05 | -0.064 ± 0.17 | -0.0005 ± 0.076 | 0.026 ± 0.083 | 0.085 ± 0.078 | 0.0405 ± 0.06 | 0.058 ± 0.096 | -0.0255 ± 0.11 | 0.0865 ± 0.025 | 0.0615 ± 0.023 | -0.0195 ± 0.0021 | 0.0135 ± 0.0078 | 0.0225 ± 0.081 | -0.0025 ± 0.0092 | 0.009 ± 0.028 | 0.019 ± 0.093 | 0.0875 ± 0.069 | 0.0305 ± 0.023
15 | LPS:CCL2/MCP-1 | -0.0025 ± 0.021 | -0.005 ± 0.0028 | 0.032 ± 0.011 | -0.0045 ± 0.016 | 0.022 ± 0.025 | 0.0725 ± 0.0035 | -0.011 ± 0.014 | -0.008 ± 0.031 | 0.019 ± 0.068 | 0.006 ± 0.0085 | -0.007 ± 0.0099 | 0.01 ± 0.013 | -0.0035 ± 0.011 | -0.017 ± 0.0028 | 0.008 ± 0.04 | -0.026 ± 0.023 | -0.011 ± 0.011 | -0.01 ± 0.011 | 0.0085 ± 0.025
